± gives the expanded uncertainty stated by the source.

As usually defined, the viscosity is the resistance of a fluid to flow. For orientation: mass density means mass per unit of volume.

The conditions of series [1]: 100 kPa, Liquid; for viscosity: Falling or rolling sphere viscometry; for mass density: Vibrating tube method.
Series [2] can be described thus: xn = mol fraction of the nth substance listed. The conditions noted are these: 100 kPa, Liquid, x2 = 0; for viscosity: Falling or rolling sphere viscometry; for mass density: Vibrating tube method.

As to `CN(C)C(=[NH2+])N(C)C.c1c[n-]cn1` [1,1,3,3-tetramethylguanidinium imidazol-1-ide], the viscosity in series [1] (293.15 K) was determined as 8.952 ± 0.2 mPa·s; in series [1] (298.15 K), 7.287 ± 0.16 mPa·s; in series [1] (303.15 K) it was 6.044 ± 0.13 mPa·s; in series [1] (308.15 K), 5.097 ± 0.11 mPa·s; in series [1] (313.15 K), 4.358 ± 0.096 mPa·s. Also, the mass density in series [1] (293.15 K) is reported as 997.25 ± 0.25 kg/m3; in series [1] (298.15 K), 992.8 ± 0.25 kg/m3; in series [1] (303.15 K), 988.35 ± 0.25 kg/m3; in series [1] (308.15 K), 983.9 ± 0.25 kg/m3; in series [1] (313.15 K) it was 979.46 ± 0.25 kg/m3.

On to `CCCCO` [butan-1-ol], for which the viscosity came out at 2.918 ± 0.062 mPa·s in series [1] (293.15 K); 2.566 ± 0.055 mPa·s in series [1] (298.15 K); 2.272 ± 0.049 mPa·s in series [1] (303.15 K); 2.024 ± 0.043 mPa·s in series [1] (308.15 K); 1.81 ± 0.039 mPa·s in series [1] (313.15 K). For the same molecule, the mass density is 809.72 ± 0.16 kg/m3 in series [1] (293.15 K); 805.92 ± 0.16 kg/m3 in series [1] (298.15 K); 802.08 ± 0.16 kg/m3 in series [1] (303.15 K); 798.21 ± 0.16 kg/m3 in series [1] (308.15 K); 794.3 ± 0.17 kg/m3 in series [1] (313.15 K).

`CCCCO` [butan-1-ol] + CN(C)C(=[NH2+])N(C)C.c1c[n-]cn1: the viscosity in series [2] (293.15 K) is recorded as 2.918 ± 0.062 mPa·s; in series [2] (298.15 K) it was 2.566 ± 0.055 mPa·s; in series [2] (303.15 K) it was 2.272 ± 0.049 mPa·s; in series [2] (308.15 K), 2.024 ± 0.043 mPa·s; in series [2] (313.15 K), 1.81 ± 0.039 mPa·s. The mass density is listed as 809.72 ± 0.16 kg/m3 in series [2] (293.15 K); 805.92 ± 0.16 kg/m3 in series [2] (298.15 K); 802.08 ± 0.16 kg/m3 in series [2] (303.15 K); 798.21 ± 0.16 kg/m3 in series [2] (308.15 K); 794.3 ± 0.17 kg/m3 in series [2] (313.15 K).

On to `CCO` [ethanol], for which the viscosity was determined as 1.186 ± 0.025 mPa·s in series [1] (293.15 K); 1.083 ± 0.023 mPa·s in series [1] (298.15 K); 0.987 ± 0.021 mPa·s in series [1] (303.15 K); 0.903 ± 0.019 mPa·s in series [1] (308.15 K); 0.829 ± 0.018 mPa·s in series [1] (313.15 K). The mass density in series [1] (293.15 K) came out at 789.51 ± 0.17 kg/m3; in series [1] (298.15 K), 785.4 ± 0.17 kg/m3; in series [1] (303.15 K) it was 780.83 ± 0.17 kg/m3; in series [1] (308.15 K), 776.48 ± 0.17 kg/m3; in series [1] (313.15 K), 772.15 ± 0.17 kg/m3.

For `CCO` [ethanol] + CN(C)C(=[NH2+])N(C)C.c1c[n-]cn1, the viscosity in series [2] (293.15 K) was 1.186 ± 0.025 mPa·s; in series [2] (298.15 K) it was 1.083 ± 0.023 mPa·s; in series [2] (303.15 K) it was 0.987 ± 0.021 mPa·s; in series [2] (308.15 K) it was 0.903 ± 0.019 mPa·s; in series [2] (313.15 K), 0.829 ± 0.018 mPa·s. In addition, the mass density in series [2] (293.15 K) is recorded as 789.51 ± 0.17 kg/m3; in series [2] (298.15 K), 785.4 ± 0.17 kg/m3; in series [2] (303.15 K) it was 780.83 ± 0.17 kg/m3; in series [2] (308.15 K), 776.48 ± 0.17 kg/m3; in series [2] (313.15 K) it was 772.15 ± 0.17 kg/m3.

Regarding `CO` [methanol], the viscosity came out at 0.597 ± 0.013 mPa·s in series [1] (293.15 K); 0.559 ± 0.012 mPa·s in series [1] (298.15 K); 0.518 ± 0.011 mPa·s in series [1] (303.15 K); 0.493 ± 0.011 mPa·s in series [1] (308.15 K); 0.466 ± 0.01 mPa·s in series [1] (313.15 K). Also, the mass density in series [1] (293.15 K) turned out to be 791.35 ± 0.17 kg/m3; in series [1] (298.15 K), 786.67 ± 0.18 kg/m3; in series [1] (303.15 K), 781.94 ± 0.18 kg/m3; in series [1] (308.15 K), 777.2 ± 0.18 kg/m3; in series [1] (313.15 K) it was 772.42 ± 0.18 kg/m3.

In the case of `CO` [methanol] + CN(C)C(=[NH2+])N(C)C.c1c[n-]cn1, the viscosity in series [2] (293.15 K) was found to be 0.597 ± 0.013 mPa·s; in series [2] (298.15 K) it was 0.559 ± 0.012 mPa·s; in series [2] (303.15 K) it was 0.518 ± 0.011 mPa·s; in series [2] (308.15 K), 0.493 ± 0.011 mPa·s; in series [2] (313.15 K) it was 0.466 ± 0.01 mPa·s. Moreover, the mass density in series [2] (293.15 K) came to 791.35 ± 0.17 kg/m3; in series [2] (298.15 K), 786.67 ± 0.18 kg/m3; in series [2] (303.15 K), 781.94 ± 0.18 kg/m3; in series [2] (308.15 K), 777.2 ± 0.18 kg/m3; in series [2] (313.15 K) it was 772.42 ± 0.18 kg/m3.

Regarding `CCCO` [propan-1-ol], the viscosity amounted to 2.217 ± 0.047 mPa·s in series [1] (293.15 K); 1.955 ± 0.042 mPa·s in series [1] (298.15 K); 1.736 ± 0.037 mPa·s in series [1] (303.15 K); 1.55 ± 0.033 mPa·s in series [1] (308.15 K); 1.389 ± 0.03 mPa·s in series [1] (313.15 K). For the same molecule, the mass density came out at 803.75 ± 0.16 kg/m3 in series [1] (293.15 K); 799.71 ± 0.17 kg/m3 in series [1] (298.15 K); 795.65 ± 0.17 kg/m3 in series [1] (303.15 K); 791.56 ± 0.17 kg/m3 in series [1] (308.15 K); 787.42 ± 0.17 kg/m3 in series [1] (313.15 K).

Consider `CCCO` [propan-1-ol] + CN(C)C(=[NH2+])N(C)C.c1c[n-]cn1, for which the viscosity in series [2] (293.15 K) was 2.217 ± 0.047 mPa·s; in series [2] (298.15 K), 1.955 ± 0.042 mPa·s; in series [2] (303.15 K) it was 1.736 ± 0.037 mPa·s; in series [2] (308.15 K), 1.55 ± 0.033 mPa·s; in series [2] (313.15 K), 1.389 ± 0.03 mPa·s. The mass density stood at 803.75 ± 0.16 kg/m3 in series [2] (293.15 K); 799.71 ± 0.17 kg/m3 in series [2] (298.15 K); 795.65 ± 0.17 kg/m3 in series [2] (303.15 K); 791.56 ± 0.17 kg/m3 in series [2] (308.15 K); 787.42 ± 0.17 kg/m3 in series [2] (313.15 K).
